Measured values: patent US20220259167A1 (UNIVERSITY HEALTH NETWORK, priority 2019, published 2022)
“And” between values parts separate entries of the source, which are not always exact repeats. Identical values can stand only once. Like-named read-outs stand apart in the source and are kept apart here.

What was measured:
[1] = target: biotinylated amyloid-beta(1-42) (bioAbeta42) (Homo sapiens, UniProt P05067); format: biochemical
SIM-A9 cells = assay: Anti-inflammation assay: TNF-α production from LPS stimulated SIM-A9 cells (ELISA); format: cell-based
Aβ 1-40 = Aβ 1-40 (Homo sapiens, UniProt P05067); assay: Aβ ThT aggregation (fibrillization) assay; format: biochemical
[2] = tested on: differentiated THP-1 cells; assay: Anti-inflammatory cytokine levels (M2 indicators) during neurotoxicity assay; format: cell-based, human; conditions: FIG. 6
Source text: This study used differentiated (using phorbol myristate acetate, PMA) human acute monocytic leukemia cells, THP-1, cultured in RPMI 1640 medium supplemented with additives. […] On treatment with PMA, the suspension (floating cells) mature to a highly adherent phenotype with increased phagocytic ability (macrophage/microglia like). Typically, after PMA differentiation THP-1 monocytes, display increased cell surface expression of CD11b and CD14. PMA differentiated macrophage/microglia with a combination of LPS/IFNγ/amyloid beta peptide were used to activate the cells; and small synthetic molecules were tested. The cell-free supernatant generated from microglia were then transferred to previously mature neuronal cells lines. The THP-1 monocytes should have adhered to the plate by now; these are defined as M0 macrophages. Remove the differentiating medium containing PMA and add the Experimental medium with stimulants at a final concentration of IFNγ 400 ng/ml and LPS 1 μg/ml. These stimulants are the first stimulus for the conversion into M1 macrophages. Keep the first stimulus on for three hours and add 25 μM of compounds in the required wells (This is aimed at converting M1→M2 macrophages/microglia like cells). […]

SH-SY5Y = assay: Neurotoxicity (Ntox) assay: SH-SY5Y viability after supernatant from activated differentiated THP-1 cells; format: cell-based, human; conditions: 25 μM compound on THP-1; SH-SY5Y viability 72 h post-addition of supernatant
Source text: This study used differentiated (using phorbol myristate acetate, PMA) human acute monocytic leukemia cells, THP-1, cultured in RPMI 1640 medium supplemented with additives. Earlier studies with THP-1 cell line indicate that upon LPS/IFNγ activation, these cells release neurotoxic factors [Cheung Y T, et al. Neurotoxicology. 2009; 30(1):127-35]. These are remarkably plastic cells, which can potentially polarize to multiple cell lineages on the application of specific stimuli. On treatment with PMA, the suspension (floating cells) mature to a highly adherent phenotype with increased phagocytic ability (macrophage/microglia like). Typically, after PMA differentiation THP-1 monocytes, display increased cell surface expression of CD11b and CD14. PMA differentiated macrophage/microglia with a combination of LPS/IFNγ/amyloid beta peptide were used to activate the cells; and small synthetic molecules were tested. The cell-free supernatant generated from microglia were then transferred to previously mature neuronal cells lines.
Seed (0.5×10^6) THP-1 cells in each well of a 12-well tissue culture plate in warm complete growth medium up to 500 μl to 1 ml per well. […]

[3] = Example 5, ND = inhibition activity not detected over 200 μM, read-out: Inhibition of Aβ oligomerization, μM IC50
[4] = compound 2.7 μM, LPS stimulated SIM-A9 cells, read-out: TNF-α Inhibition
[5] = compound at 100 μM, Example 5, versus DMSO control
[6] = compound at 100 μM, Example 5, versus DMSO control, read-out: Inhibition of Aβ fibrillization at concentration 100 μM, Inhibition %
[7] = Example 2, read-out: Anti-Aβ oligomerization IC50
[8] = compound at 100 μM, Example 3, read-out: % inhibition of Aβ fibrillization (at 100 μ M)
[9] = SIM-A9, read-out: TNF-α Inhibition
[10] = read-out: Inhibition of Aβ fibrillization at concentration 100 μM, Inhibition %, compound at 100 μM, Example 5, versus DMSO control
[11] = read-out: % inhibition of Aβ fibrillization (at 100 μ M), compound at 100 μM, Example 3

biotinylated amyloid-beta(1-42) (bioAbeta42), sequence (P05067 672-713): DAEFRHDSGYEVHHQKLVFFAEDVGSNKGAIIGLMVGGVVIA
Aβ 1-40, sequence (P05067 672-711): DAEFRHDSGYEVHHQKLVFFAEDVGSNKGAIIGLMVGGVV

In the case of `CNC(=O)c1cc(S(=O)(=O)NC)c(Cl)cc1NCc1ccco1` [WW102, 4-Chloro-2-((furan-2-ylmethyl)amino)-N-methyl-5-(N-methylsulfamoyl)benzamide], the IC50 [1, 3] is reported as 103 ± 22.1 µM, the inhibition at 2.7 µM (SIM-A9 cells; [4]) is reported as 25% and the “Inhibition of Aβ fibrillization at concentration 100 μM, Inhibition %” value (from here on “Inhibition of Aβ fibrillization … Inhibition %”) (Aβ 1-40; [5]) is reported as “Pro- fibrillization”.

For `CNS(=O)(=O)c1cc(C(=O)OC)c(NCc2ccco2)cc1Cl` [WW100], the IC50 [1, 3] was 56 ± 26.6 µM, the inhibition at 2.7 µM (SIM-A9 cells; [4]) was 31% and the inhibition at 100 µM (Aβ 1-40; [6]) was 27.1%.

In the case of `O=C(O)c1cc(S(=O)(=O)N2CCOCC2)c(Cl)cc1NCc1ccco1` [WW049, 4-Chloro-2((furan-2-ylmethyl)amino)-5-(morpholinosulfony)benzoic Acid], the IC50 [1, 7] is reported as 38.5 µM, the IC50 [1, 3] is reported as 41.2 ± 12.8 µM and the “Inhibition of Aβ fibrillization … Inhibition %” value (Aβ 1-40; [5]) is reported as “Pro- fibrilliza- tion”.

`CNS(=O)(=O)c1cc(C(=O)O)c(NCc2ccco2)cc1Cl` [WW032, 4-chloro-2-((furan-2-ylmethyl)amino)-5-(N-methylsulfamoyl) Benzoic Acid] was tested, and the IC50 [1, 7] was 55.1 µM, the IC50 [1, 3] was 53 ± 3.37 µM and the “Inhibition of Aβ fibrillization … Inhibition %” value (Aβ 1-40; [5]) was “Pro- fibrilliza- tion”.

`CN(C)S(=O)(=O)c1cc(C(=O)O)c(NCc2ccco2)cc1Cl` [WW062, 4-Chloro-5-(N, N-dimethylsulfamoyl)-2-((furan-2-ylmethyl)amino) Benzoic Acid] was tested, and the IC50 [1, 3] was 113 ± 22.8 µM and the “Inhibition of Aβ fibrillization … Inhibition %” value (Aβ 1-40; [5]) was “Pro- fibrilliza- tion”.

For `CCCCCCNS(=O)(=O)c1cc(C(=O)O)c(NCc2ccco2)cc1Cl` [WW064, 4-Chloro-2-((furan-2-ylmethyl)amino)-5-(N-hexylsulfamoyl) Benzoic Acid], the IC50 [1, 7] was 46.1 µM, the IC50 [1, 3] was 47.8 ± 14.3 µM and the inhibition at 100 µM (Aβ 1-40; [8]) was 39.2%. For the same compound, the inhibition at 100 µM (Aβ 1-40; [6]) was 39.2%.

With `CNS(=O)(=O)c1cc(C(=O)N(C)C)c(NCc2ccco2)cc1Cl` [WW103, 4-Chloro-2-((furan-2-ylmethyl)amino)-N, N-dimethyl-5-(N-methylsulfamoyl) Benzamide] the IC50 ([1]; Example 5, ND = inhibition activity not detected over 200 μM, listed as SII-W103, read-out: Inhibition of Aβ oligomerization, μM IC50) was 6.5 µM and 6.56 µM, the inhibition at 100 µM (Aβ 1-40; [8]) was 25.2% and the inhibition at 100 µM (Aβ 1-40; [6]) was 25.2%.

With `O=C(O)c1ccc(Cl)cc1NCc1ccco1` [WW001, 4-Chloro-2-((furan-2-ylmethyl)amino) Benzoic Acid] the IC50 [1, 3] was greater than 200 µM and the inhibition at 100 µM (Aβ 1-40; [6]) was 20.2%.

`COc1ccc(C(O)C(F)(F)F)c(NCc2cscn2)c1` (stereo not drawn) [WW005] gave an IC50 [1, 3] of 130 ± 28.4 µM, an inhibition at 2.7 µM (SIM-A9 cells; [9]) of 27% and an inhibition at 100 µM (Aβ 1-40; [10]) of 6.49%.

In the case of `CNS(=O)(=O)c1cc(C(N)=O)c(NCc2ccco2)cc1Cl` [WW101, 4-Chloro-2-((furan-2-ylmethyl)amino)-5-(N-methylsulfamoyl)benzamide], the IC50 [1, 3] is reported as 82.4 ± 28.5 µM, the inhibition at 2.7 µM (SIM-A9 cells; [4]) is reported as 27% and the “Inhibition of Aβ fibrillization … Inhibition %” value (Aβ 1-40; [5]) is reported as “Pro- fibrillization”.

Compound `OC(c1ccc(F)cc1NCc1ccco1)C(F)(F)F` (stereo not drawn) [WW011, 2,2,2-Trifluoro-1-(4-fluoro-2-((furan-2-ylmethyl)amino)phenyl) ethan-1-ol] has an IC50 [1, 3] of 153 ± 48 µM, an inhibition at 2.7 µM (SIM-A9 cells; [9]) of 25.9% and an inhibition at 100 µM (Aβ 1-40; [10]) of 5.14%.

With `O=C(O)c1cc(S(=O)(=O)Nc2ccccc2)c(Cl)cc1NCc1ccco1` [SI-W080, 4-Chloro-2-((furan-2-ylmethyl)amino)-5-(N-phenylsulfamoyl) benzoic acid] the IC50 [1, 3] was 168 ± 29 µM and the inhibition at 100 µM (Aβ 1-40; [6]) was 17.4%.

For `O=C(O)c1cc(S(=O)(=O)NCc2ccc(C(O)C(F)(F)F)cc2)c(Cl)cc1NCc1ccco1` (stereo not drawn) [WW036, 4-Chloro-2-((furan-2-ylmethyl)amino)-5-(N-(4-(2,2,2-trifluoro-1-hydroxyethyl)benzyl)sulfamoyl)benzoic Acid], the IC50 [1, 3] was 68.5 ± 18.7 µM and the “Inhibition of Aβ fibrillization … Inhibition %” value (Aβ 1-40; [5]) was “Pro- fibrilliza- tion”.

In the case of `NS(=O)(=O)c1cc(C(=O)O)c(NCc2ccco2)cc1Cl` [Furosemide, 4-Chloro-2-((furan-2-ylmethyl)amino)-5-sulfamoylbenzoic Acid, reference compound], the IC50 [1, 3] is reported as greater than 200 µM, the “Concentrations of anti-inflammatory cytokines (IL-4, IL-10, IL-1RA, Arginase; M2 indicators)” value [2] is reported as “increases the concentrations of anti-inflammatory cytokines” and the inhibition at 100 µM (Aβ 1-40; [6]) is reported as 8.56%.

In the case of `OC(c1ccc(Br)cc1NCc1cscn1)C(F)(F)F` (stereo not drawn) [WW017, 1-(4-Bromo-2-((thiazol-4-ylmethyl)amino)phenyl)-2,2,2-trofluoroethan-1-ol], the IC50 [1, 3] is reported as greater than 200 µM, the inhibition at 2.7 µM (SIM-A9 cells; [9]) is reported as 31% and the inhibition at 100 µM (Aβ 1-40; [11]) is reported as 33%. For the same compound, the inhibition at 100 µM (Aβ 1-40; [10]) was 33%.

With `COc1ccc(C(O)C(F)(F)F)c(NCc2ccco2)c1` (stereo not drawn) [WW003, 2,2,2-trifluoro-1-(2-((furan-2-ylmethyl)amino)-4-methoxyphenyl) ethan-1-ol] the IC50 [1, 3] was greater than 200 µM, the inhibition at 2.7 µM (SIM-A9 cells; [9]) was 28% and the inhibition at 100 µM (Aβ 1-40; [10]) was 36.8%.

Compound `OC(c1ccc(Cl)cc1NCc1ccco1)C(F)(F)F` (stereo not drawn) [WW013, 1-(4-Chloro-2-((furan-2-ylmethyl)amino)phenyl)-2,2,2-trifluoroethan-1-ol] has an IC50 [1, 3] greater than 200 µM, an inhibition at 2.7 µM (SIM-A9 cells; [9]) of 33% and an inhibition at 100 µM (Aβ 1-40; [10]) of 60.7%.

With `O=C(O)c1ccccc1NCc1ccccc1` [2-(benzylamino)benzoic acid] the “Rescue of neuronal cells under Aβ-induced neurotoxicity / neuroinflammation” value (SH-SY5Y) was “able to rescue neuronal cells under Aβ-induced neurotoxicity”.

Compound `OC(c1ccc(Cl)cc1NCc1cscn1)C(F)(F)F` (stereo not drawn) [WW021, 1-(4-Chloro-2-((thiazol-4-ylmethyl)amino)phenyl)2,2,2-trifluoroethan-1-ol] has an IC50 [1, 3] greater than 200 µM, an inhibition at 2.7 µM (SIM-A9 cells; [9]) of 38% and an inhibition at 100 µM (Aβ 1-40; [10]) of 27.9%.

Compound `O=C(O)c1cc(S(=O)(=O)N2CCCCC2)c(Cl)cc1NCc1ccco1` [WW096, 4-Chloro-2-((furan-2-ylmethyl)amino)-5-(piperidin-1-ylsulfonyl) Benzoic Acid] has an IC50 [1, 3] greater than 200 µM, an inhibition at 2.7 µM (SIM-A9 cells; [4]) of 11% and an inhibition at 100 µM (Aβ 1-40; [6]) of 19.1%.

`OC(c1ccc(Br)cc1NCc1ccco1)C(F)(F)F` (stereo not drawn) [WW016, 1-(4-Bromo-2-((furan-2-ylmethyl)amino)phenyl)-2,2,2-trifluoroethan-1-ol] gave an IC50 [1, 3] greater than 200 µM, an inhibition at 2.7 µM (SIM-A9 cells; [9]) of 34.8% and an inhibition at 100 µM (Aβ 1-40; [11]) of 81.3%. The inhibition at 100 µM (Aβ 1-40; [10]) was 81%.
